Reference: PubChem BioAssay AID330 (DTP/NCI, 2004)
Where “and” joins values, the source holds several entries; their conditions need not be identical. Identical values can stand only once. Inconclusive results and toxic doses are left out. How the source made its calls: active means survival T/C of 150% or more; inactive means T/C below 125% in these data.

System: P388 leukemia ip, CD2F1 mice, survival T/C
Assay: NCI In Vivo Anticancer Drug Screen. Data for tumor model P388 Leukemia (intraperitoneal) in CD2F1 (CDF1) mice
Conditions: endpoint: median survival time, higher = longer survival
How it was run: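 Mice carrying the transplanted tumor received test compound or vehicle. Survival was recorded in each group, and the value is the treated-group measurement divided by that of the vehicle-treated control group.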

[1] = dose: 50.0 mg/kg/injection, schedule: Q01DX009 (ip), vehicle: saline with Tween-80
[2] = dose: 100.0 mg/kg/injection, schedule: Q01DX009 (ip), vehicle: saline with Tween-80
[3] = dose: 200.0 mg/kg/injection, schedule: Q01DX009 (ip), vehicle: saline with Tween-80
[4] = dose: 100.0 mg/kg/injection, schedule: Q04DX003 (ip), vehicle: saline with Tween-80
[5] = dose: 200.0 mg/kg/injection, schedule: Q04DX003 (ip), vehicle: saline with Tween-80
[6] = dose: 60.0 mg/kg/injection, schedule: Q01DX005 (ip), vehicle: saline with Tween-80
[7] = dose: 120.0 mg/kg/injection, schedule: Q01DX005 (ip), vehicle: saline with Tween-80
[8] = dose: 240.0 mg/kg/injection, schedule: Q01DX005 (ip), vehicle: saline with Tween-80
[9] = dose: 50.0 mg/kg/injection, schedule: Q01DX005 (ip), vehicle: Klucel (hydroxypropylcellulose) (HPC)
[10] = dose: 100.0 mg/kg/injection, schedule: Q01DX001 (ip), vehicle: Klucel (hydroxypropylcellulose) (HPC)
[11] = dose: 200.0 mg/kg/injection, schedule: Q01DX001 (ip), vehicle: Klucel (hydroxypropylcellulose) (HPC)
[12] = dose: 400.0 mg/kg/injection, schedule: Q01DX001 (ip), vehicle: Klucel (hydroxypropylcellulose) (HPC)
[13] = dose: 25.0 mg/kg/injection, schedule: Q01DX009 (ip), vehicle: saline with Tween-80
[14] = dose: 50.0 mg/kg/injection, schedule: Q01DX009 (ip), vehicle: saline
[15] = dose: 100.0 mg/kg/injection, schedule: Q01DX009 (ip), vehicle: saline

Measured: T/C

O=C(NCCCl)OCC(Cl)(Cl)Cl
inactive: [1] 91 % of control | [2] 100 % of control | [3] 98 % of control

C=C1C(=O)OC2CC3(CO3)C3CC(OC(C)=O)C(=C)C3(O)CC12 (configuration not stated)
inactive: dose: 8.0 mg/kg/injection, schedule: Q01DX009 (ip), vehicle: Klucel (hydroxypropylcellulose) (HPC) 99 % of control | dose: 16.0 mg/kg/injection, schedule: Q01DX009 (ip), vehicle: Klucel (hydroxypropylcellulose) (HPC) 116 % of control | dose: 32.0 mg/kg/injection, schedule: Q01DX009 (ip), vehicle: Klucel (hydroxypropylcellulose) (HPC) 119 % of control | dose: 64.0 mg/kg/injection, schedule: Q01DX009 (ip), vehicle: Klucel (hydroxypropylcellulose) (HPC) 114 % of control

CCOC(=O)CCC(NC(=O)N(CCCl)CCCl)C(=O)OCC (configuration not stated)
active: [1] 154 % of control | [2] 168 % of control | dose: 132.0 mg/kg/injection, schedule: Q04DX003 (ip), vehicle: saline with Tween-80 168 % of control | [3] 181 % of control | [5] 150 % of control and 172 % of control | dose: 300.0 mg/kg/injection, schedule: Q04DX003 (ip), vehicle: saline with Tween-80 195 % of control
inactive: [4] 113 % of control

CCCCCOn1nnc2ccccc21
inactive: [4] 101 % of control | [5] 101 % of control | dose: 400.0 mg/kg/injection, schedule: Q04DX003 (ip), vehicle: saline with Tween-80 101 % of control

COc1ccc(C(CC(C)=O)c2cc3c(cc2OC(C)=O)OCO3)cc1 (configuration not stated)
inactive: [6] 97 % of control | [7] 103 % of control | [8] 99 % of control

CCC12C=CCN3CC[C@@]4(c5cc([C@@]6(C(=O)OC)C[C@@H]7CN(CCc8c6[nH]c6ccccc86)C[C@](O)(CC)C7)c(OC)cc5N(C)[C@H]4[C@@](O)(C(=O)OC)[C@@H]1OC(=O)CCCCCCCCCCCN1C(=O)C=CC1=O)[C@H]32 (some centres not stated)
inactive: dose: 6.25 mg/kg/injection, schedule: Q01DX001 (ip), vehicle: other 124 % of control
active: dose: 12.5 mg/kg/injection, schedule: Q01DX001 (ip), vehicle: saline with Tween-80 161 % of control | dose: 25.0 mg/kg/injection, schedule: Q01DX001 (ip), vehicle: other 200 % of control | dose: 25.0 mg/kg/injection, schedule: Q01DX001 (ip), vehicle: saline with Tween-80 238 % of control | dose: 25.0 mg/kg/injection, schedule: Q01DX001 (ip), vehicle: saline 202 % of control | dose: 50.0 mg/kg/injection, schedule: Q01DX001 (ip), vehicle: saline 215 % of control

CCCCN=Cc1ccccc1O.CCCCN=Cc1ccccc1O.[Cu]
inactive: [9] 99 % of control

CCCCCCCCCC(=O)Oc1c2ccoc2cc2oc(=O)ccc12
inactive: [10] 98 % of control | [11] 91 % of control | [12] 103 % of control

CCCCNCCC(SS)c1ccc(Cl)cc1 (configuration not stated)
inactive: [13] 110 % of control | [1] 100 % of control | [2] 100 % of control

CC(CC(=O)O)C(N)C(=O)O (configuration not stated)
inactive: dose: 50.0 mg/kg/injection, schedule: Q01DX005 (ip), vehicle: saline 96 % of control | [14] 92 % of control | dose: 100.0 mg/kg/injection, schedule: Q01DX005 (ip), vehicle: saline 95 % of control | [15] 91 % of control | dose: 200.0 mg/kg/injection, schedule: Q01DX005 (ip), vehicle: saline 101 % of control | dose: 200.0 mg/kg/injection, schedule: Q01DX009 (ip), vehicle: saline 92 % of control

CN(C)CCOc1cccc(NC2=C(Cl)C(=O)C(Nc3cccc(OCCN(C)C)c3)=C(Cl)C2=O)c1
inactive: dose: 1.56 mg/kg/injection, schedule: Q01DX005 (ip), vehicle: Klucel (hydroxypropylcellulose) (HPC) 100 % of control and 107 % of control | dose: 3.12 mg/kg/injection, schedule: Q01DX005 (ip), vehicle: Klucel (hydroxypropylcellulose) (HPC) 107 % of control and 96 % of control | dose: 6.25 mg/kg/injection, schedule: Q01DX005 (ip), vehicle: Klucel (hydroxypropylcellulose) (HPC) 104 % of control and 122 % of control and 97 % of control

COc1cccc(CC(=O)NCCc2ccc(OC)c(OC)c2)c1
inactive: [2] 100 % of control | [3] 100 % of control | dose: 400.0 mg/kg/injection, schedule: Q01DX009 (ip), vehicle: saline with Tween-80 104 % of control

C=C(C(=O)N(C(C)C)C(C)C)C(C)C(C)(C)O (configuration not stated)
inactive: dose: 50.0 mg/kg/injection, schedule: Q04DX002 (ip), vehicle: Klucel (hydroxypropylcellulose) (HPC) 101 % of control | dose: 100.0 mg/kg/injection, schedule: Q04DX002 (ip), vehicle: Klucel (hydroxypropylcellulose) (HPC) 101 % of control

C(=C1SCCCS1)c1cc2c(cc1OCc1ccccc1)OCO2
inactive: [10] 100 % of control | [11] 105 % of control | [12] 102 % of control

O=c1[nH]c2cc(Cl)ccc2nc1/C=C(\O)c1ccc(N2CCN(c3ccc(/C(O)=C/c4nc5ccc(Cl)cc5[nH]c4=O)cc3)CC2)cc1
inactive: dose: 60.0 mg/kg/injection, schedule: Q01DX005 (ip), vehicle: Klucel + Tween-80 98 % of control | dose: 120.0 mg/kg/injection, schedule: Q01DX005 (ip), vehicle: Klucel + Tween-80 93 % of control | dose: 240.0 mg/kg/injection, schedule: Q01DX005 (ip), vehicle: Klucel + Tween-80 86 % of control

CCCCCCCCCCCCCC1=NCCN1CCN
inactive: dose: 6.25 mg/kg/injection, schedule: Q01DX009 (ip), vehicle: saline with Tween-80 108 % of control and 94 % of control | dose: 12.5 mg/kg/injection, schedule: Q01DX009 (ip), vehicle: saline with Tween-80 105 % of control and 108 % of control and 109 % of control | [13] 107 % of control and 108 % of control and 111 % of control | [1] 99 % of control and 108 % of control | [14] 96 % of control | [15] 87 % of control

CCOC(CCC1=NC(C)(C)CC(C)O1)OCC (configuration not stated)
inactive: dose: 100.0 mg/kg/injection, schedule: Q01DX001 (ip), vehicle: saline sonified 110 % of control | dose: 200.0 mg/kg/injection, schedule: Q01DX001 (ip), vehicle: saline sonified 100 % of control | dose: 400.0 mg/kg/injection, schedule: Q01DX001 (ip), vehicle: saline sonified 90 % of control

c1nc2c(o1)CCCC2
inactive: [6] 104 % of control | [7] 101 % of control | [8] 95 % of control

CCOC(=O)N1C(=O)c2ccccc2C1=O
inactive: [13] 110 % of control | dose: 25.0 mg/kg/injection, schedule: Q04DX003 (ip), vehicle: saline with Tween-80 115 % of control | [1] 105 % of control | dose: 50.0 mg/kg/injection, schedule: Q04DX003 (ip), vehicle: saline with Tween-80 110 % of control | [2] 100 % of control | [4] 120 % of control

CSc1nc(C(N)=O)cc(=O)[nH]1
inactive: dose: 3.12 mg/kg/injection, schedule: Q01DX009 (ip), vehicle: Klucel (hydroxypropylcellulose) (HPC) 104 % of control | dose: 6.25 mg/kg/injection, schedule: Q01DX009 (ip), vehicle: Klucel (hydroxypropylcellulose) (HPC) 104 % of control | dose: 12.5 mg/kg/injection, schedule: Q01DX009 (ip), vehicle: Klucel (hydroxypropylcellulose) (HPC) 104 % of control and 106 % of control | dose: 25.0 mg/kg/injection, schedule: Q01DX009 (ip), vehicle: Klucel (hydroxypropylcellulose) (HPC) 105 % of control | dose: 50.0 mg/kg/injection, schedule: Q01DX009 (ip), vehicle: Klucel (hydroxypropylcellulose) (HPC) 92 % of control

CCOC(=O)c1cnc(SC)n(-c2c(Cl)cccc2Cl)c1=O
inactive: [9] 98 % of control | dose: 100.0 mg/kg/injection, schedule: Q01DX005 (ip), vehicle: Klucel (hydroxypropylcellulose) (HPC) 97 % of control | dose: 200.0 mg/kg/injection, schedule: Q01DX005 (ip), vehicle: Klucel (hydroxypropylcellulose) (HPC) 99 % of control

O=C1C(=O)c2ccc3c(c2-c2cc4c(cc21)OCO4)OCO3
inactive: dose: 60.0 mg/kg/injection, schedule: Q01DX005 (ip), vehicle: Klucel (hydroxypropylcellulose) (HPC) 86 % of control | dose: 120.0 mg/kg/injection, schedule: Q01DX005 (ip), vehicle: Klucel (hydroxypropylcellulose) (HPC) 87 % of control

O=C(N/N=C/c1ccco1)c1cccnc1
inactive: [6] 92 % of control | [7] 92 % of control | [8] 101 % of control

C=C(C)C(=O)Nc1ccc(NS(=O)(=O)c2ccc(C(C)CC)cc2)c(O)c1 (configuration not stated)
inactive: dose: 50.0 mg/kg/injection, schedule: Q01DX009 (ip), vehicle: saline + alcohol 101 % of control | dose: 100.0 mg/kg/injection, schedule: Q01DX009 (ip), vehicle: saline + alcohol 106 % of control | dose: 200.0 mg/kg/injection, schedule: Q01DX009 (ip), vehicle: saline + alcohol 106 % of control
